{
  "source": "ChEMBL document CHEMBL6087405",
  "about": "“Discovery and optimization of anthraquinone derivatives containing substituted bisbenzyloxy groups as a novel scaffold damaged endoplasmic reticulum and against hepatocellular carcinoma cells” (Bioorg Med Chem, 2024)",
  "key": {"[1]": {"test_system": "MDA-MB-231", "assay": "Antiproliferative activity against human MDA-MB-231 cells measured after 48 hrs by MTT assay", "type": "functional, cell-based", "settings": "MDA-MB-231, 48 h"}, "[2]": {"test_system": "A549", "assay": "Antiproliferative activity against human A549 cells measured after 48 hrs by MTT assay", "type": "functional, cell-based", "settings": "A549, 48 h"}, "[3]": {"test_system": "Huh-7", "assay": "Induction of ER stress in human Huh-7 cells assessed as increase in CHOP protein level at 2 to 4 uM incubated for 48 hrs by Western blot analysis", "type": "functional, cell-based", "settings": "dose 2-4 µM"}, "[4]": {"test_system": "Huh-7", "assay": "Induction of ER stress in human Huh-7 cells assessed as increase in IRE1 protein level at 4 uM incubated for 48 hrs in presence of 4pba by Western blot analysis", "type": "functional, cell-based"}, "[5]": {"test_system": "Huh-7", "assay": "Induction of morphological change in human Huh-7 cells assessed as appearance of condensed cell nucleus at 2 to 4 uM measured after 48 hrs by HE staining based microscopic analysis", "type": "functional", "settings": "dose 2-4 µM"}, "[6]": {"test_system": "Huh-7", "assay": "Induction of morphological change in human Huh-7 cells assessed as nuclear edge aggregation at 2 to 4 uM measured after 48 hrs by HE staining based microscopic analysis", "type": "functional, cell-based", "settings": "dose 2-4 µM"}, "[7]": {"test_system": "Huh-7", "assay": "Induction of morphological change in human Huh-7 cells assessed as membrane wrinkling at 2 to 4 uM measured after 48 hrs by HE staining based microscopic analysis", "type": "functional, cell-based", "settings": "dose 2-4 µM"}, "[8]": {"test_system": "Huh-7", "assay": "Induction of morphological change in human Huh-7 cells assessed as nuclear pyknosis at 2 to 4 uM measured after 48 hrs by HE staining based microscopic analysis", "type": "functional, cell-based", "settings": "dose 2-4 µM"}, "[9]": {"test_system": "Huh-7", "assay": "Upregulation of Bax protein level in human Huh-7 cells at 2 to 4 uM by Western blot analysis", "type": "functional, cell-based", "settings": "dose 2-4 µM"}, "[10]": {"test_system": "Huh-7", "assay": "Induction of apoptosis in human Huh-7 cells assessed as late apoptotic cells at 2 uM measured after 48 hrs by Annexin V-PE staining based flow cytometry analysis (reference value: 2.06%)", "type": "functional"}, "[11]": {"test_system": "Huh-7", "assay": "Induction of mitochondrial ROS release in human Huh-7 cells at 2 uM measured after 24 hrs in presence of […] by fluorescent microscopic analysis", "type": "functional, cell-based"}},
  "note": "Activity calls are given as the source filed them. No cut-off for these calls is given here.",
  "data": [
    {"smiles": "COc1ccc(COc2cccc3c2C(=O)c2c(OCc4ccc(OC)cc4)cc(C(=O)NCCNCCO)cc2C3=O)cc1", "values": [
      {"measurement": "IC50", "setting": "[1]", "value": 600, "unit": "nM"},
      {"measurement": "IC50", "setting": "[2]", "value": 2580, "unit": "nM"},
      {"measurement": "Activity", "setting": "[3]", "value": "Active"},
      {"measurement": "Activity", "setting": "[4]", "value": "inactive"},
      {"measurement": "Activity", "setting": "[5]", "value": "Active"},
      {"measurement": "Activity", "setting": "[6]", "value": "Active"},
      {"measurement": "Activity", "setting": "[7]", "value": "Active"},
      {"measurement": "Activity", "setting": "[8]", "value": "Active"},
      {"measurement": "Activity", "setting": "[9]", "value": "Active"},
      {"measurement": "Activity", "setting": "[10]", "value": 4.4, "unit": "%"},
      {"measurement": "Activity", "setting": "[11]", "value": "inactive"}
    ]}
  ]
}
